Test results reported in patent US11014920B2, “Factor XIIa inhibitors” (Merck Sharp & Dohme Corp., priority 2016, dated 2021).

Target: purified human Factor XIIa (Homo sapiens (Human), UniProt P00748)
Test: Factor XIIa assay
Type: biochemical
Conditions: substrate n-Acetyl-Lys-Pro-Arg-AFC 100 μM, pH 7.4, read-out: FXIIa IC50
Experimental: “FXIIa IC50(nm)” is Human Factor XIIa IC50 (nm).
The effectiveness of a compound of the present invention as an inhibitor of Coagulation Factor XIIa can be determined using a relevant purified serine protease, and an appropriate synthetic substrate. The rate of hydrolysis of the chromogenic or fluorogenic substrate by the relevant serine protease was measured both in the absence and presence of compounds of the present invention. Assays were conducted at room temperature or at 37° C. […] A decrease in the rate of fluorescence change in the presence of inhibitor is indicative of enzyme inhibition. Such methods are known to one skilled in the art. The results of this assay are expressed as the IC50, the inhibitor concentration causing a 50% decrease in Factor XIIa protease activity.
Factor XIIa activity determinations were made in 50 mM HEPES buffer containing 150 mM NaCl, 5 mM CaCl2, and 0.1% PEG 8000 (polyethylene glycol; JT Baker or Fisher Scientific) at pH 7.4. Determinations were made using purified human Factor XIIa at a final concentration of […] (Sekisui Diagnostics) and the synthetic substrate, n-Acetyl-Lys-Pro-Arg-AFC, TFA salt (Sigma # C6608) at a concentration of 100 μM.
Times required to achieve equilibration between enzyme and inhibitor were determined in control experiments. Initial velocities of product formation in the absence (Vo) or presence of inhibitor (Vi) were measured.

Sequence of purified human Factor XIIa (P00748 373-615): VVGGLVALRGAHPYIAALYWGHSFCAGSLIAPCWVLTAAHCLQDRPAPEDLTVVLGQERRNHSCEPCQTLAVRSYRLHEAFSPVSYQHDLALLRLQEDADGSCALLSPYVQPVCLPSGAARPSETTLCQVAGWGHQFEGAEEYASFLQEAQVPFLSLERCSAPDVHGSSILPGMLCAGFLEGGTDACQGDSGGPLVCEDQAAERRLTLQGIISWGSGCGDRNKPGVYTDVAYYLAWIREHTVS
Sequence of purified human Factor XIIa (P00748 20-372 partner): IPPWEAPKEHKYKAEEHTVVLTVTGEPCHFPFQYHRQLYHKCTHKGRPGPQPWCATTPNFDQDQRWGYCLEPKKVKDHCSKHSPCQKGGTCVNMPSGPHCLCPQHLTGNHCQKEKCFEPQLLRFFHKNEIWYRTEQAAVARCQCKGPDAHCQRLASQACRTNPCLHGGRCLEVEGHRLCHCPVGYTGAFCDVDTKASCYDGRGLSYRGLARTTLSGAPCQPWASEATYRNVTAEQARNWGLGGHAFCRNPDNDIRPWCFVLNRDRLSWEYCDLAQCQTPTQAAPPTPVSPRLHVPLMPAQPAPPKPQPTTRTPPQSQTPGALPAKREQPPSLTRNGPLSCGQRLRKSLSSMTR

SMILES	IC50 [nM]
CN(C)CCCC[C@@H](NC1CCCCC1)C(=O)N1CC[C@@H](NC(=O)N2CCCc3ccccc32)[C@@H](C(=O)NCc2cccs2)C1 [Compound 28, N-{(3S,4R)-1-(N~2~- cyclohexyl-N~6~,N~6~-dimethyl-D-lysyl)-3-[(thiophen-2-ylmethyl)carbamoyl]pi-peridin-4-yl}-3,4-dihydroquinoline-1(2H)-carboxamide]	102
CC(=O)OCCCC[C@@H](NC1CCCCC1)C(=O)N1CC[C@@H](NC(=O)N2CCC3(CC2)CC3)[C@@H](C(=O)NCc2cccs2)C1 [Compound 26, (5R)-6-{(3S,4R)-4-[(6-azaspiro[2.5]oct-6-ylcarbonyl)amino]-3-[(thiophen-2-ylmethy)carbamoyl]pi-peridin-1-yl}-5-(cyclohexylamino)-6-oxohexyl acetate]	65.9
CN(C)CCCC[C@H](C(=O)N1CC[C@@H](NC(=O)c2ccc(F)cc2)[C@@H](C(=O)NCc2cccs2)C1)N(C)C1CCCCC1 [Compound 6, (3S,4R)-1-(N~2~- cyclohexyl-N~2~,N~6~,N~6~- trimethyl-D-lysyl)-4-{[(4-fluoro-phenyl)carbonyl]amino}-N-(thiophen-2-ylmethyl)piperidine-3-carboxamide]	98.3
CN(C)CCCC[C@H](C(=O)N1CC[C@@H](NC(=O)c2ccccc2)[C@@H](C(=O)NCc2cccs2)C1)N(C)C1CCCCC1 [Compound 8, (3S,4R)-1-(N~2~- cyclohexyl-N~2~,N~6~,N~6~- trimethyl-D-lysyl)-4-[(phenylcarbonyl)amino]-N-(thiophen-2-ylmethyl)piperidine-3-carboxamide]	60.2
NCCCC[C@@H](NC1CCCCC1)C(=O)N1CC[C@@H](NC(=O)N2CCC3(CC2)CC3)[C@@H](C(=O)NCc2cccs2)C1 [Compound 11, N-{(3S,4R)-1-(N~2~- cyclohexyl-D-lysyl)-3-[(thiophen-2-ylmethyl)carbamoyl]pi-peridin-4-yl}-6-azaspiro[2.5]octane-6-carboxamide]	71.6

The next compounds have a lower IC50 than those just listed; values first:

IC50 [nM]	SMILES
15.1	CN(C)CCCC[C@H](C(=O)N1CC[C@@H](NC(=O)N2CCC3(CC2)CC3)[C@@H](C(=O)NCc2cccs2)C1)N(C)C1CCCCC1 [Compound 33, N-{(3S,4R)-1-(N~2~- cyclohexyl-N~2~,N~6~,N~6~- trimethyl-D-lysyl)-3-[(thiophen-2-ylmethyl)carbamoyl]pi-peridin-4-yl}-6-azaspiro[2.5]octane-6-carboxamide]
52.4	CS(=O)(=O)NCCCC[C@@H](NC1CCCCC1)C(=O)N1CC[C@@H](NC(=O)N2CCC3(CC2)CC3)[C@@H](C(=O)NCc2cccs2)C1 [Compound 23, N-{(3S,4R)-1-[N~2~- cyclohexyl-N~6~- (methylsulfonyl)-D-lysyl]-3-[(thiophen-2-ylmethyl)carbamoyl]pi-peridin-4-yl}-6-azaspiro[2.5]octane-6-carboxamide]
41.7	NCc1ccc(CNC(=O)[C@H]2CN(C(=O)[C@@H](CC3CC3)NC3CCCCC3)CC[C@H]2NC(=O)N2CCC3(CC2)CC3)cc1 [Compound 12, N-[(3S,4R)-3-{[4-(amino-methyl)benzyl]carbamoyl}-1-(N-cyclohexyl-3-cyclopropyl-D-alanyl)piperidin-4-yl]-6-azaspiro[2.5]octane-6-carboxamide]
5.7	CN(C)CCCC[C@@H](NC1CCCCC1)C(=O)N1CC[C@@H](NC(=O)N2CCC3(CC2)CC3)[C@@H](C(=O)NCc2cccs2)C1 [Compound 34, N-{(3S,4R)-1-(N~2~- cyclohexyl-N~6~,N~6~-dimethyl-D-lysyl)-3-[(thiophen-2-ylmethyl)carbamoyl]pi-peridin-4-yl}-6-azaspiro[2.5]octane-6-carboxamide]
29.2	CS(=O)(=O)NCCCC[C@@H](NC1CCC2(CC1)CCN(Cc1ccccc1)C2)C(=O)N1CC[C@@H](NC(=O)N2CCC3(CC2)CC3)[C@@H](C(=O)NCc2cccs2)C1 (stereo partly drawn) [Compound 18, N-{(3S,4R)-1-[N~2~- (2-benzyl-2-azaspiro[4.5]dec-8-yl)-N~6~-(methylsulfonyl)-D-lysyl]-3-[(thiophen-2-ylmethyl)carbamoyl]pi-peridin-4-yl}-6-azaspiro[2.5]octane-6-carboxamide]
